Reference: patent publication US11998033B2, “Sweetening compositions” (PepsiCo, Inc., priority 2016, dated 2024)
Like-named read-outs stand apart in the source and are kept apart here.

Assays:
[1] = format: physicochemical
Description: (§1) For the examples below, turbidity is reported in NTUs and was measured at 20±2° C. using a Hach 2100AN Turbidimeter. The instrument was calibrated using a STABLCAL Calibration Kit including samples having turbidities ranging from 0.1 NTU to 7500 NTU. Test samples were measured in a Turbidimeter glass vial and NTU values were read after a 30 second stabilization period.
Suspensions of 1 weight percent rebaudioside D in water at ambient temperature were prepared in five individual beakers. Rebaudioside A, stevioside, rebaudioside C, and rebaudioside M were added to each of the first four beakers, respectively, such that that the resulting weight ratio of rebaudioside D to the added steviol glycoside was 1:5. As a control, no additional steviol glycoside was added to the fifth beaker.
After stirring, turbidity measurements were taken from each of the five samples and graphed. According to the turbidity measurements, rebaudiosides A and M had no effect on rebaudioside D solubility.

[2] = Example 4: temperature and low shear mixing (turbidity, HPLC of supernatant); format: physicochemical
Description: This study was conducted with a 5:1 mixture (weight/weight) of rebaudioside A and rebaudioside D and a 5:1 mixture (weight/weight) of a rebaudioside A composition and rebaudioside D, wherein the rebaudioside A composition included 30 weight percent stevioside.
The described blends were individually combined with water to produce compositions having rebaudioside D concentrations of 1.4 weight percent based on the total mass of the mixture, including water. The mixtures were then mixed under low shear for 10 minutes at ambient temperature (21° C.). A 100 g sample was removed and centrifuged, and the resulting supernatant was analyzed for turbidity and rebaudioside A and D concentration (HPLC).
The mixtures were then warmed to 45° C. and mixed for 10 minutes. Another 100 g sample was removed and analyzed as described above.
The mixtures were finally warmed to 65° C. and mixed for 10 minutes. Another 100 g sample was removed an analyzed as described above.
This experiment was repeated with 10:1 mixtures of the compositions described above, wherein the final rebaudioside D concentration in each of the compositions was 1.43 weight percent, based on the total mass of the composition, including water.

[3] = format: physicochemical; remark: listed apart in the source
Description: as §1
Varying concentrations of rebaudioside A, rebaudioside C, rebaudioside B, and rebaudioside M were then added individually to the stevioside/rebaudioside D solutions at 70° C. The solutions were allowed to cool to room temperature. Each sample's appearance was noted and turbidity measurements were taken to track solubility.

[4] = format: physicochemical; remark: listed apart in the source
Description: Rebaudioside D has a better sugar character and taste profile than Rebaudioside A, but only about 200 ppm Rebaudioside D can be solubilized in water at 23° C. after about 30 minutes stirring. While up to about 450 ppm rebaudioside can be solubilized after extended stirring, the amount of time required to prepare these higher concentration rebaudioside D solutions is impractical on a commercial scale. Similarly, while an 8000 ppm aqueous rebaudioside D solution can be prepared by heating rebaudioside D in water to nearly 100° C. for two hours, cooling the solution results in recrystallization, making the solution impractical to work with on a commercial manufacturing scale.
For example, in certain embodiments, rebaudioside D solubility can be increased 50 fold, for example, from about 200 ppm (0.02 weight percent) up to about 10,000 ppm (1 weight percent), when a 1 weight percent rebaudioside D suspension is combined with sufficient stevioside to produce a 50,000 ppm (5 weight percent) steviol glycoside solution. In other embodiments, even greater increases in rebaudioside D solubility can be observed.

[5] = Example 1: room temperature rebaudioside D solubility (turbidity); format: physicochemical; details: 0.02 to 1.5 weight percent, ambient temperature, FIG. 1
Description: as §1
Rebaudioside D was added to a number of beakers in increasing concentrations (0.02 weight percent, 0.04 weight percent, 0.1 weight percent, 0.5 weight percent, 1 weight percent, and 1.5 weight percent) at ambient temperature. Turbidity measurements were taken to track solubility in the various samples and the results were plotted (FIG. 1).

[6] = Example 2: rebaudioside D solubility at elevated temperatures (turbidity); format: physicochemical
Description: as §1
The samples prepared in Example 1 were heated to 70° C. and turbidity was measured again. At 70° C., the 0.5 weight percent rebaudioside D sample was soluble. But the 1 and 1.5 weight percent rebaudioside D samples continued to show maximum turbidity (about 12,000 NTU).

[7] = Example 8: effect of temperature on solubility (appearance, turbidity); format: physicochemical
Description: as §1
Aqueous samples containing the amounts of rebaudioside D and stevioside listed in Table 3 were prepared by combining the noted amounts of rebaudioside D and stevioside in water. The samples were then warmed to the temperatures noted in the table.
The appearance of all the samples prepared as above was noted and turbidity measurements were taken to track solubility.

[8] = Example 9: HPLC analysis of aqueous filtrate after centrifugation and filtration; format: physicochemical; details: rebaudioside B added at 0.4% to stevioside/rebaudioside D solution, centrifuged, filtered
Description: To confirm that the cloudiness observed in samples comprising rebaudioside B was due to the rebaudioside B itself, a solution of stevioside and rebaudioside D was prepared and rebaudioside B was added at a concentration of 0.4% to form a cloudy suspension. The sample was centrifuged and filtered and the aqueous filtrate was analyzed by HPLC. […] Thus, the cloudiness observed with the addition of rebaudioside B was due to the insolubility of rebaudioside B itself, and not due to the degradation of the rebaudioside D/stevioside complex.

Compound: C=C1C[C@@]23CC[C@H]4[C@@](C)(CCC[C@@]4(C)C(=O)O[C@@H]4O[C@H](CO)[C@@H](O)[C@H](O)[C@H]4O)[C@@H]2CC[C@]1(O[C@@H]1O[C@H](CO)[C@@H](O)[C@H](O[C@@H]2O[C@H](CO)[C@@H](O)[C@H](O)[C@H]2O)[C@H]1O[C@@H]1O[C@H](CO)[C@@H](O)[C@H](O)[C@H]1O)C3 [rebaudioside A]
- effect of added steviol glycoside on rebaudioside D solubility [1]: no effect
- effect on solubility of rebaudioside D ([2]; 5:1 mixture with rebaudioside D, 1.4 weight percent rebaudioside D, low shear 10 minutes, at each of 21° C., 45° C. and 65° C.): neither rebaudioside A nor the rebaudioside A/stevioside composition including 30 weight percent stevioside enhanced the solubility of rebaudioside D
- effect on solubility of rebaudioside D ([2]; 10:1 mixture with rebaudioside D, 1.43 weight percent rebaudioside D, low shear): did not enhance the solubility of rebaudioside D
- effect of adding the steviol glycoside on rebaudioside D's solubility [3]: does not affect rebaudioside D's solubility

Compound: C=C1C[C@@]23CC[C@H]4[C@@](C)(CCC[C@@]4(C)C(=O)O[C@@H]4O[C@H](CO)[C@@H](O)[C@H](O)[C@H]4O[C@@H]4O[C@H](CO)[C@@H](O)[C@H](O)[C@H]4O)[C@@H]2CC[C@]1(O[C@@H]1O[C@H](CO)[C@@H](O)[C@H](O[C@@H]2O[C@H](CO)[C@@H](O)[C@H](O)[C@H]2O)[C@H]1O[C@@H]1O[C@H](CO)[C@@H](O)[C@H](O)[C@H]1O)C3 [rebaudioside D]
- aqueous rebaudioside D solution that can be prepared by heating [4]: 8000 ppm
- solubility in water at room temperature [5]: insoluble
- solubility in water ([6]; 0.5 weight percent sample at 70° C.): soluble
- turbidity ([6]; 1 and 1.5 weight percent samples at 70° C.): about 12,000 NTU
- solubility of rebaudioside D at 70° C. and on cooling ([7]; all four concentrations of rebaudioside D below 0.4): dissolved at 70° C., but precipitated from solution when cooled unless stevioside was present
- solubility of rebaudioside D ([7]; concentration of 0.1%, 20° C., even up to a 4:1 ratio of stevioside to rebaudioside D): insoluble

Compound: C=C1C[C@@]23CC[C@H]4[C@@](C)(CCC[C@@]4(C)C(=O)O[C@@H]4O[C@H](CO)[C@@H](O)[C@H](O[C@@H]5O[C@H](CO)[C@@H](O)[C@H](O)[C@H]5O)[C@H]4O[C@@H]4O[C@H](CO)[C@@H](O)[C@H](O)[C@H]4O)[C@@H]2CC[C@]1(O[C@@H]1O[C@H](CO)[C@@H](O)[C@H](O[C@@H]2O[C@H](CO)[C@@H](O)[C@H](O)[C@H]2O)[C@H]1O[C@@H]1O[C@H](CO)[C@@H](O)[C@H](O)[C@H]1O)C3 [rebaudioside M]
- effect of added steviol glycoside on rebaudioside D solubility [1]: no effect
- effect of adding the steviol glycoside on rebaudioside D's solubility [3]: does not affect rebaudioside D's solubility

Compound: C=C1C[C@@]23CC[C@H]4[C@@](C)(CCC[C@@]4(C)C(=O)O[C@@H]4O[C@H](CO)[C@@H](O)[C@H](O)[C@H]4O)[C@@H]2CC[C@]1(O[C@@H]1O[C@H](CO)[C@@H](O)[C@H](O)[C@H]1O[C@@H]1O[C@H](CO)[C@@H](O)[C@H](O)[C@H]1O)C3 [stevioside]
- effect of added steviol glycoside on rebaudioside D solubility [1]: clear mixture

Compound: rebaudioside B
- solubility [3]: insoluble
- appearance after adding the steviol glycoside ([3]; added at or over 0.2% to stevioside/rebaudioside D solution): cloudy solution
- share of the amount initially added contained in the aqueous filtrate [8]: 65%

Compound: rebaudioside C
- turbidity ([1]; 1 weight percent rebaudioside D in water, ambient temperature, rebaudioside D to added steviol glycoside 1:5 by weight, FIG. 3): about 1000 NTU
- effect of adding the steviol glycoside on rebaudioside D's solubility [3]: does not affect rebaudioside D's solubility
